Test results published in patent US10709707B2, “Methods of treating ocular conditions” (Oyster Point Pharma, Inc., priority 2016, dated 2020).
Where two headings read alike, the source gives them in different places.

Assays:
[1] = tested on: subjects (intranasal administration); assay: Panel of compounds administered intranasally: effect on tearing and discomfort response
Procedure: (§2) A panel of twenty compounds with various receptor binding profiles, including other nicotinic acetylcholine receptor (nAchR) agonists were tested. At the onset of the experiment, 50 microliters of a 0.01 mg/mL compound formulation was administered intranasally to three subjects.

formalin test = assay: Analgesic effects, formalin test; type: in vivo, Mouse: CD-1; settings: Compound 1 0.1, 1 and 10 mg/kg, Aspirin 100 mg/kg, Morphine 30 mg/kg; for analgesic effects after formalin injection, Day 1: po
[2] = tested on: subjects (intranasal administration); settings: in vivo
Procedure: as §2

[3] = tested on: paclitaxel-induced neuropathy, allodynia; assay: Reversing symptoms of paclitaxel-induced neuropathy; type: in vivo, Rat; settings: 100 mg/kg ip, 90 min before testing, Weeks 3 and 4 post-paclitaxel
behavioral sensitization = assay: CNS safety pharmacology, behavioral sensitization by motor activity; type: in vivo, Rat: Sprague-Dawley; settings: Compound 1 3, 10, 30 mg/kg po
[4] = tested on: cryopreserved hepatocytes from rat, dog, monkey and human; assay: 24-hour incubation in cryopreserved hepatocytes, species comparison; type: in vitro ADME
Excerpt: (§1) In human and monkey, the primary route of metabolism was through oxidation of the pyrrolidine ring (metabolite M02) before further metabolism via dioxidation to M1 or M3. In humans, parent accounted for 37% of extracellular radioactivity, M02 was 13.9%.M1 was 4.1% and M3 was 1.1%. In monkey, parent accounted for 14.2%, M02 was 5.0%, M1 was 5.8% and M3 was 29.4%. In the rat, the primary metabolite is an N-oxide-pyrimidine derivative (M9); it accounted for 71.9% of extracellular radioactivity while parent represented only 1.4%.

[5] = tested on: cryopreserved hepatocytes; assay: 24-hour incubation in cryopreserved hepatocytes (human); type: in vitro ADME
Excerpt: as §1

[6] = excretion of radioactivity in Sprague-Dawley rat; settings: 30 mg/kg po
[7] = tested on: cryopreserved hepatocytes; assay: 24-hour incubation in cryopreserved hepatocytes (rat); type: in vitro ADME
Excerpt: as §1

[8] = excretion of radioactivity in monkey; type: in vivo; settings: for administered radioactive dose recovered in cage wash / administered radioactive dose recovered in diet debris / administered radioactive dose recovered in feces / administered radioactive dose recovered in urine / administered radioactive dose recovered, total: 168-hour period
[9] = tested on: cryopreserved hepatocytes; assay: 24-hour incubation in cryopreserved hepatocytes (monkey); type: in vitro ADME
Excerpt: as §1

[10] = metabolism in vivo after single po dose in rats; settings: rat, 30 mg/kg
Procedure: The main metabolite in plasma and urine was M9; in plasma from 6 to 24 hours post-dose an unknown polar metabolite (M13) accounted for a significant portion of total radioactivity. In plasma, parent accounted for 11.7% of AUC0-24 total radioactivity, M9 accounted for 20.9% and M13 accounted for 15.9%. In urine (the primary route of elimination) over a 24 hours period, parent accounted for 17.8% of total radioactivity, M9 accounted for 37.7% and M13 accounted for 0.7%.

[11] = distribution studies with [14C]-Compound 1 in Long Evans and Sprague-Dawley rat; type: in vivo
Excerpt: In male and female Sprague-Dawley rats, tissue distribution appeared similar to that of the Long Evans rat.

[12] = tested on: STZ rat model of diabetic neuropathy; assay: Mechanical allodynia, STZ rat model of diabetic neuropathy; type: in vivo, Rat: Sprague-Dawley; settings: insulin-treated group
[13] = 50 microliters intranasally, three subjects, 0.01 mg/mL increased logarithmically up to 10 mg/mL

Cc1cc([C@@H]2CCCN2C)on1 [ABT-418]
Causes Tearing [1, 13]: Yes
Discomfort Response [1, 13]: Moderate

CC(=O)Oc1ccccc1C(=O)O [Aspirin]
analgesic effects after formalin injection, Day 1 (formalin test): mg/kg) and Aspirin at 100 mg/kg failed

O=Cc1ccccc1 [Benzaldehyde]
Causes Tearing [1, 13]: No
Discomfort Response [1, 13]: No

CNCCc1ccccn1 [Betahistine]
Causes Tearing [1, 13]: No
Discomfort Response [1, 13]: No

CC12CCC(CC1=O)C2(C)C (stereo not drawn) [Camphor]
Causes Tearing [1, 13]: No
Discomfort Response [1, 13]: No

COc1cc(CNC(=O)CCCC/C=C/C(C)C)ccc1O [Capsaicin]
Causes Tearing [1, 13]: Yes
Discomfort Response [1, 13]: Severe

Cc1ccc(C(C)C)cc1O [Carvacrol]
Causes Tearing [1, 13]: Yes
Discomfort Response ([1]; in vivo): Severe

O=c1cccc2n1C[C@@H]1CNC[C@H]2C1 [Cytisine]
Discomfort Response [2]: Moderate
Causes Tearing ([1]; in vivo): Partial

CC[N+](CC)(CC(=O)Nc1c(C)cccc1C)Cc1ccccc1 [Denatonium]
Causes Tearing [1, 13]: No
Discomfort Response [1, 13]: No

CCOc1cc(C=O)ccc1O [Ethylvanillin]
Causes Tearing [1, 13]: No

CC12CCC(CC1)C(C)(C)O2 [Eucaliptol]
Causes Tearing [1, 13]: No
Discomfort Response [1, 13]: No

C=CCc1ccc(O)c(OC)c1 [Eugenol]
Causes Tearing [1, 13]: No
Discomfort Response [1, 13]: No

COc1ccc(/C=C2\CCCN=C2c2cccnc2)c(OC)c1 [GTS-21]
Causes Tearing [1, 13]: Yes
Discomfort Response [1, 13]: Severe

NCC1(CC(=O)O)CCCCC1 [Gabapentin, reference compound]
reversing allodynia [3]: 100 mg/kg, was effective at reversing

CC(C)=CCC/C(C)=C/CO [Geraniol]
Causes Tearing [1, 13]: No
Discomfort Response [1, 13]: No

CC1CCC(C(C)C)C(O)C1 (stereo not drawn) [Menthol]
Causes Tearing [1, 13]: No
Discomfort Response [1, 13]: No

CN1CC[C@]23c4c5ccc(O)c4O[C@H]2[C@@H](O)C=C[C@H]3[C@H]1C5 [Morphine]
analgesic activity after formalin injection, Day 7 (formalin test; once daily for 7 days po): mg/kg) persisted on Day 7.
analgesic effects after formalin injection, Day 1 (formalin test): mg/kg, po) produced a significant

CN1CCCC1c1cccnc1 (stereo not drawn) [Nicotine]
Discomfort Response [2]: Severe
behavioral sensitization (motor activity) (behavioral sensitization): marked behavioral sensitization.
Causes Tearing [1, 13]: Yes

O=C(N[C@H]1CN2CCC1CC2)c1cc2ccoc2cn1 [PHA-543613]
Causes Tearing [1, 13]: No
Discomfort Response [1, 13]: No

CC(C)=C1CC[C@@H](C)CC1=O [Pulegone]
Causes Tearing [1, 13]: No
Discomfort Response ([1]; in vivo): No

O=C(N[C@@H]1C2CCN(CC2)[C@H]1Cc1cccnc1)c1cc(F)cc(F)c1 [TC-6987]
Causes Tearing [1, 13]: No
Discomfort Response [1, 13]: No

c1cnc2cc3c(cc2n1)[C@@H]1CNC[C@H]3C1 [Varenicline]
Causes Tearing [1, 13]: Yes
Discomfort Response [1, 13]: No

C(=C\[C@H]1CCNC1)/c1cncnc1 [[^14C]-Compound 1]
species ranking of metabolism [4]: rat>monkey>human>dog
extent of metabolism ([4]; depending on species): slightly to moderately metabolized
share of extracellular radioactivity [5]: 37%
time by which nearly all recovered radioactivity was eliminated [6]: ≤ 24 h
administered dose recovered in feces ([6]; 168 hour period): 10.9%
administered dose recovered in urine ([6]; 168 hour period): 77.6%
administered dose recovered, total ([6]; 168 hour period post-dose): 91.2%
share of extracellular radioactivity [7]: 1.4%
time by which nearly all recovered radioactivity was eliminated ([8]; 5 mg/kg iv infusion): ≤ 24 h
administered radioactive dose recovered in cage wash ([8]; 5 mg/kg iv infusion): 7.6%
administered radioactive dose recovered in diet debris ([8]; 5 mg/kg iv infusion): 6.9%
administered radioactive dose recovered in feces ([8]; 5 mg/kg iv infusion): 7.6%
administered radioactive dose recovered in urine ([8]; 5 mg/kg iv infusion): 70.7%
administered radioactive dose recovered, total ([8]; 5 mg/kg iv infusion): 93.0%
time by which nearly all recovered radioactivity was eliminated ([8]; 10 mg/kg po): ≤ 48 h
administered radioactive dose recovered in cage wash ([8]; 10 mg/kg po): 10.2%
administered radioactive dose recovered in diet debris ([8]; 10 mg/kg po): 6.6%
administered radioactive dose recovered in feces ([8]; 10 mg/kg po): 12.8%
administered radioactive dose recovered in urine ([8]; 10 mg/kg po): 60.7%
administered radioactive dose recovered, total ([8]; 10 mg/kg po): 90.3%
share of extracellular radioactivity [9]: 14.2%
extent of metabolism in vivo [10]: extensively metabolized
share of AUC0-24 total radioactivity in plasma [10]: 11.7%
share of total radioactivity in urine [10]: 17.8%
tissue with highest concentration of radioactivity at final sampling time ([11]; male Long Evans rat, 1 mg/kg po, 168 hours): adrenal medulla
tissue with highest concentration of radioactivity at final sampling time ([11]; male and female Sprague-Dawley rats, 30 mg/kg po, 24 hours): adrenal medulla

insulin: insulin-treated group in the STZ rat model
significant improvement in pain sensitivity [12]: glucose levels but no
